From patent US10471054B2, “CDK1 inhibitors of acetyl chrysin mannich base derivatives, synthesis and use thereof” (priority 2016, dated 2019)
Converted amounts (≈) assume the structure as drawn. Like-named read-outs stand apart in the source and are kept apart here.

Columns and labels:
[1] = Solubility in Octanol, water and pH media; type: physicochemical
Description: (§1) The solubility and log P of acetyl ChrysinMannich base derivatives see TABLE 1.
(§2) CH-j is pKa 5.3, log P 1.63 in Octanol/Water at 37° C. […] (BA-j 77m/ml). CH-j belongs to BCS II (low solubility, high permeability) and solubility presents the pH dependence. […] CH-j is a pH dependent fast release. […] It is speculated that CH-j has more appropriate log P and solubility with more likely entering tissue cells than others solubility acetyl Chrysin Mannich base derivatives.
(§3) (about 20 times BA-f 277 μg/ml) and 564 μg/ml in water at 37° C. (about 1000 times BA-f 0.53m/ml). CH-f is BCS I (high solubility and permeability) and solubility presents the pH dependence. It is speculated that CH-f has more appropriate log P and solubility with entering systemic (blood system and tissue cells) than others solubility acetyl Chrysin Mannich base derivatives.

[2] = log P in Octanol/Water; type: physicochemical; conditions: Octanol/Water at 37° C.
Description: as §1, §2, §3

[3] = tested on: 5 cancers cells (MCF-7, H-460, BGC-823, PC-3, Hep G2); assay: Anti-cancer cells proliferation activity, average of 5 cancer cells; type: cell-based; conditions: for IC50: average of 5 cancer cells
Excerpt: Anti-cancer cells proliferationactivity of in vitro CH-j and CH-f were shown in TABLE 2 for the results of the screening of 5 cancers cells.

[4] = tested on: MCF-7; assay: Hoechst 33258 fluorescence staining, apoptosis; type: cell-based; conditions: 0, 5, 10, 20 μM for 24 h
Description: Hoechst 33258 is an active fluorescent dye with DNA specific binding, which is mainly combined with base area of DNA, which emits blue fluorescence when stimulated by ultraviolet light. The living cells emit uniform fluorescence, the apoptotic cells are bright blue fluorescence due to their chromatin fixation, dense and concentrated nuclei.
MCF-7 was treated with 0, 5, 10, 20 μM of CH-f and CH-j for 24 h, Hoechst 33258 fluorescence staining, and cell morphological changes were shown in FIG. 3-1. […] CH-f and CH-j are completely different from the cytotoxic drug HCPT, which appears to be apoptotic at low doses and necrotic at high doses in BGC-823.
FIG. 3-1 Hoechst 33258 staining results for MCF-7.

[5] = tested on: caspase-3, 8, 9; assay: Caspase activity in BGC-823; type: cell-based; conditions: range of 0-10 μM, 24 h
Excerpt: Caspase is a series of cysteinyl aspartate specific proteinase in the cytoplasm of protease with closely related to cell apoptosis, and participate in cell growth, differentiation and apoptosis regulation. Caspase is same key enzymes in apoptosis process and in the apoptosis of the mediated cells, there are almost all apoptotic signaling pathways involved in the pathway of caspase. […] Caspase-8 is an early starter for the induction of apoptosis, and the caspase-3 is the late executor. Pro-caspase-9 is dissociation with phosphorylation surviving, and inhibiting cell apoptosis and promoting division. Pro-caspase-9 by H2O2 is oxidized into caspase-9-S—S-caspase-9 with inhibiting cell division and inducing apoptosis. H2O2 can directly oxidize and activate caspase, hydrolyze antiapoptotic protein Bcl-2 and Bcl-xl substrate, so selectively induce apoptosis of cancer cells and reduce the damage of normal cells.
FIG. 3-4: caspases: X-coordinate is CH-j concentration (μM) and Y-coordinate the activity of caspase (%) for BGC-823.

[6] = tested on: MCF-7; assay: Autophagy in MCF-7; type: cell-based; conditions: 50 μM for 9 h and 24 h
[7] = tested on: Bcl-2; assay: Bcl-2 expression in MCF-7; type: cell-based; conditions: 10 μM for 24 h
[8] = tested on: HIF-1β; assay: HIF-1β expression in BGC-823, immune-printing; type: cell-based; conditions: 0, 2.5, 5, 10 μM for 1 h, then insulin
Description: BGC-823 was treated with 0, 2.5, 5, 10 μM CH-j for 1 h, then the 2 μM insulin was added, and 2 h were cultured, and the cells were collected and lysed.
FIG. 4: CH-j effect on the HIF-1 of BGC-823 was treated with 0, 2.5, 5, 10 μM CH-j for 1 h, then added 0.2 μM insulin culture for 24 h, and the HIF-1α and HIF-1β were determined by the immune imprinting method.

[9] = Main metabolic pathways, glucose aldehyde acid metabolism; conditions: in vivo
Excerpt: (I) Neutral degradation in normal cells: CH-j is hydrolyzing into Hydroxy-phenyl-acetic acid (M152), 1-(2, 4, 6-Trihydroxy-phenyl)-ethanone (M168) and N-hydroxymethyl-piperidin-4-one (M129) as the main metabolic pathways.
Flavopiridol, p276-00 and Vorciclib of Chrysin-organic amine derivatives, duo to mainly C7-glucose aldehyde acidification metabolites by oral, only a small amount is into the tissue cells. In the tissue cells, it is not easy to be metabolized in part because of the organic amine substituents, thus producing strong cytotoxicity. […] CH-j can enhance I phase metabolism and inhibit II phase metabolism. […] [Scientific Reports, 2015, 5: 13626; Fitoterapia, 2015, 107:36-34.]

[10] = Tissue distribution in rat, 2 h; type: in vivo
Description: The distribution results of CH-j tissue distribution were shown in FIG. 6, when CH-j 100 mg/kg rat by venous intravenous (i.v.) or oral (p.o.) 2 h. […] CH-j by oral in the stomach concentration of the large, about 2 time higher than other tissues. […] Compared with the intravenous administration, the oral administration was completely absorbed and the bioavailability was close to 100%.
FIG. 6: 2 h distribution of the drug (100 mg/kg) by CH-j rats: Y-coordinate is the concentration of CH-j (μg/g), by intravenous (i.v.), by oral (p.o.).

[11] = tested on: H-460 xenograft; assay: H-460 xenograft in BALB/c nude mouse; type: in vivo; conditions: compared with before
Description: The anti-tumor effect of the BALB/c nude mouse model of the non-small cell lung cancer (H-460) was determined by the method [Scientific Reports, 2015, 5: 13626], and the results were shown in FIG. 7. 5 or 10 mg/kg of CH-j, for twice daily 10 days were compared with the control group.
FIG. 7: H-460 carcinoma in male BALB/c nude mice xenograft model, two times a day to fill the stomach to CH-j 5 and 10 mg/kg, for 10 days in a row, X-coordinate is experimental time (days), and Y-coordinate vertical volume of H-460 carcinoma (mm^3).

BCS class [1]: BCS II
Solubility in Octanol relative to BA analogue ([1]; CH-j vs BA-j, CH-f vs BA-f, 37° C.): about 6 times
solubility ([1]; organic solvent or mixture, Octanol, 37° C., read-out: Solubility in Octanol): 2420 µg/mL (≈ 5910 µM)
solubility ([1]; pH 1.2, simulated gastric fluid, 0.1M HCl (pH1.2), 37° C., read-out: Solubility): 574 µg/mL (≈ 1400 µM)
solubility ([1]; pH 4.5, aqueous buffer, 0.05M NaAC-HAC buffered solution (pH4.5), 37° C., read-out: Solubility): 528 µg/mL (≈ 1290 µM)
solubility ([1]; pH 6.8, aqueous buffer, PBS (pH6.8), 37° C., read-out: Solubility): 78 µg/mL (≈ 191 µM)
solubility ([1]; water, 37° C., read-out: Solubility in H2O): 56 µg/mL (≈ 137 µM)
log P [2]: 1.64
logP ([2]; octanol/water): 1.63
IC50 [3]: 2.6 µg/mL
IC50 ([3]; MTT, 48 h): 6.3 µM
Dependence of metabolic pathway on CYP3A4 [9]: independent of CYP3A4
Concentration in the stomach relative to other tissues ([10]; 100 mg/kg rat, oral, 2 h): about 2 time
bioavailability ([10]; in vivo, rat 100 mg/kg, oral compared with intravenous): ~100%
Blood-brain barrier passage ([10]; rat 100 mg/kg, 2 h): able to pass the blood-brain barrier
SMILES: CC(=O)c1c(O)c(CN2CCC(O)CC2)c2oc(-c3ccccc3)cc(=O)c2c1O [CH-j, 6-Acetyl-5,7-dihydroxy-8-(4-hydroxy-piperidin-1-ylmethyl)-2-phenyl-chromen-4-one]
Anti-proliferative activity, times stronger than BA-j [3]: 2 times
Anti-proliferative activity, times stronger than Chrysin [3]: 5 times
Apoptosis by Hoechst 33258 staining [4]: apoptosis cell percentage in dose dependent increase
Activation of caspase-3, 8, 9 [5]: activated caspase-3, 8, 9 both in a dose-dependent upward trend
Autophagy [6]: can cause autophagy
Bcl-2 expression [7]: Bcl-2 expression can be suppressed
HIF-1β expression [8]: without affecting the expression of HIF-1β
Detection of prototype drug in blood, urine, tissues ([10]; rat): In the blood, urine, bile and tissues, the prototype drugs and metabolites can be detected
Reduction rate of H-460 tumor ([11]; 5 mg/kg twice daily 10 days): 90.5%±9.2%
Reduction rate of H-460 tumor ([11]; 10 mg/kg twice daily 10 days): 95.2%±11.6%
